Reference: ChEMBL document CHEMBL1130598, “Pyrroles and other heterocycles as inhibitors of p38 kinase” (Bioorg Med Chem Lett, 1998)

Tests used:
[1] = target: Mitogen-activated protein kinase 14 (Rattus norvegicus, UniProt P70618); assay: Inhibitory potency evaluated against rat p38 kinase
Rattus norvegicus [2] = organism: Rattus norvegicus; assay: Inhibition of secondary paw swelling in rat adjuvant arthritis model […]; assay type: functional
[3] = target: MAP kinase p38 (Homo sapiens) (UniProt O15264+Q15759+Q16539+P53778); assay: Inhibition of p38 MAP kinase; assay type: protein assay
Rattus norvegicus [4] = organism: Rattus norvegicus; assay: Inhibition of secondary paw swelling in rat adjuvant arthritis model; assay type: functional; details: Rattus norvegicus; read-out: ID50 (the source's name)
[5] = target: Mitogen-activated protein kinase 8 (Homo sapiens, UniProt P45983); assay: Inhibition of c-Jun N-terminal kinase 1-alpha 1 at 5 uM
Rattus norvegicus [6] = assay: Inhibition of secondary paw swelling in rat adjuvant arthritis model at 80 mg/kg b.i.d.; assay type: functional; details: intraduodenal

Sequence of Mitogen-activated protein kinase 14 (P70618 whole entry): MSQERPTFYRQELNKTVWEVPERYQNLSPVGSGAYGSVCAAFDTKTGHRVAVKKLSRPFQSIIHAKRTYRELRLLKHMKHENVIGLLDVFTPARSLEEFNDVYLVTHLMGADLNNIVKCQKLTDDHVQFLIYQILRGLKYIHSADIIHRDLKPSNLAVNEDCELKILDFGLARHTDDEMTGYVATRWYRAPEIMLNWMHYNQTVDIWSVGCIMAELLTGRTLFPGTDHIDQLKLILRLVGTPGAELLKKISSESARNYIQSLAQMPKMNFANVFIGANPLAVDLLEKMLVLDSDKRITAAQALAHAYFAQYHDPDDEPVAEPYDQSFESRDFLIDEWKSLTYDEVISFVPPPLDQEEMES
Sequence of Mitogen-activated protein kinase 8 (P45983 whole entry): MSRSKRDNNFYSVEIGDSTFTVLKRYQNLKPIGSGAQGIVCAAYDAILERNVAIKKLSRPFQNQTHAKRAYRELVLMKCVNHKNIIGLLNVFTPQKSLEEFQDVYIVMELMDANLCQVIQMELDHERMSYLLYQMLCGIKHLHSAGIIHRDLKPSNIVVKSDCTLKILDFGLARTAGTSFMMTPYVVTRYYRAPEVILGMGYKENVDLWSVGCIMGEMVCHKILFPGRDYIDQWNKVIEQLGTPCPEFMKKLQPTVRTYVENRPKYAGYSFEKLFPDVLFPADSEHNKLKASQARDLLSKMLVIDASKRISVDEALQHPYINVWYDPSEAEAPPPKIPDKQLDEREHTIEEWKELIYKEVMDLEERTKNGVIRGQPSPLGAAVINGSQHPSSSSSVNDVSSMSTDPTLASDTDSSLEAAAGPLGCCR

Row | Structure (SMILES) | IC50 [1] | other results
1 | O=C(CCN1CCCCC1)Nc1ccc(-c2cc(-c3ccncc3)c(-c3ccccc3)[nH]2)cc1 | 390 nM | –
2 | Fc1ccc(-c2cc(-c3ccc(Cl)cc3)[nH]c2-c2ccncc2)cc1 | 1400 nM | –
3 | CSc1ccc(-c2[nH]c(-c3ccccc3)cc2-c2ccncc2)cc1 | 690 nM | –
4 | Fc1ccc(-c2cc(-c3ccc(Cl)cc3)oc2-c2ccncc2)cc1 | 530 nM | –
5 | c1ccc(-c2cc(-c3ccncc3)c(-c3ccccn3)[nH]2)cc1 | 2300 nM | –
6 | CCOC(=O)c1ccc(-c2cc(-c3ccncc3)c(-c3ccccc3)[nH]2)cc1 | 130 nM | –
7 | Fc1ccc(-c2[nH]c(-c3ccccc3)cc2-c2ccncc2)cc1 | 12 nM | –
8 | Clc1ccc(-c2[nH]c(-c3ccccc3)cc2-c2ccncc2)cc1 | 18 nM | –
9 | CC(C)(C)Oc1ccc(-c2[nH]c(-c3ccccc3)cc2-c2ccncc2)cc1 | > 1000 nM | –
10 | Clc1ccc(-c2cc(-c3ccncc3)c(-c3ccccc3)[nH]2)cc1 | 510 nM | –
11 | Clc1ccccc1-c1[nH]c(-c2ccccc2)cc1-c1ccncc1 | 500 nM | –
12 | Clc1cccc(-c2[nH]c(-c3ccccc3)cc2-c2ccncc2)c1 | 29 nM | –
13 | COc1ccc(OC)c(-c2cc(-c3ccncc3)c(-c3ccccc3)[nH]2)c1 | 5000 nM | –
14 | O=[N+]([O-])c1ccc(-c2cc(-c3ccncc3)c(-c3ccccc3)[nH]2)cc1 | 6.1 nM | –
15 | Fc1ccc(-c2nc(-c3ccc(Cl)cc3)[nH]c2-c2ccncc2)cc1 | 80 nM | –
16 | c1ccc(-c2cc(-c3ccncc3)c(-c3cccnc3)[nH]2)cc1 | 240 nM | –
17 | Cc1cnccc1-c1cc(-c2ccc([S+](C)[O-])cc2)[nH]c1-c1ccc(F)cc1 (stereo unspecified) | 260 nM | –
18 | Oc1ccc(-c2[nH]c(-c3ccccc3)cc2-c2ccncc2)cc1 | 2400 nM | –
19 | Cc1cc(-c2cc(-c3ccc([S+](C)[O-])cc3)[nH]c2-c2ccc(F)cc2)ccn1 (stereo unspecified) | 6 nM | –
20 | Oc1c(-c2ccncc2)c(-c2ccc(F)cc2)nn1-c1ccc(Cl)cc1 | 500 nM | Inhibition (Rattus norvegicus [2]): 43%
21 | Fc1ccc(-c2cc(-c3ccncc3)c(-c3ccccc3)[nH]2)cc1 | 17 nM | –
22 | COc1ccc(OC)c(-c2cc(-c3ccncc3)c(-c3ccc(F)cc3)[nH]2)c1 | 1700 nM | –
23 | Fc1ccc(-c2[nH]c(-c3ccccc3)cc2-c2ccccc2)cc1 | – | inhibition [3]: 79%
24 | CCOC(=O)c1ccc(-c2[nH]c(-c3ccccc3)cc2-c2ccncc2)cc1 | > 10000 nM | –
25 | CSc1ccc(-c2cc(-c3ccncc3)c(-c3ccc(F)cc3)[nH]2)cc1 | 44 nM | –
26 | C[S+]([O-])c1ccc(-c2nc(-c3ccc(F)cc3)c(-c3ccncc3)[nH]2)cc1 (stereo unspecified) [SB-203580] | – | ED50 (Rattus norvegicus [4]): 80 mg/kg/day; inhibition [5]: 50%; inhibition in vivo at 80 mg/kg (Rattus norvegicus [6]): 74%
27 | Clc1ccc(-c2[nH]c(-c3ccccc3)cc2-c2ccncc2)cc1Cl | 30 nM | –
28 | Fc1ccc(-c2oc(-c3ccc(Cl)cc3)cc2-c2ccncc2)cc1 | 630 nM | –
